In assay [1] the test system is VEGF-induced HUVEC growth. The assay can be described thus: VEGF-induced HUVEC growth reaction evaluation system (cell growth inhibitory action test). The conditions noted are these: Homo sapiens, 72 h, 20 μg/ml test compound solution added 5 μl per well (100 μl), VEGF solution 400 ng/ml 5 μl per well, three days, absorbance at 450 nm, read-out: Cell growth inhibition rate (%). In kind it is cell-based. How it is done:
Cell growth inhibitory action tests were carried out using a VEGF-induced HUVEC growth reaction evaluation system (HUVEC stands for human umbilical vein endothelial cells), which is one of widely-used methods of evaluating in vitro angiogenesis inhibitory effects of drugs.
As one of widely-used methods of evaluating angiogenesis inhibitory effects of drugs, a cell growth inhibitory action test using a VEGF-induced HUVEC growth reaction evaluation system was reported in Cancer Res., 59, 99-106(1999). According to the method described in the above-mentioned literature, cell growth inhibitory action tests of the present compounds were carried out, their cell growth inhibition rates were calculated, and angiogenesis inhibitory effects of the present compounds were evaluated using the obtained rates as indexes.
Each test compound was dissolved in dimethyl sulfoxide (hereinafter abbreviated as “DMSO”), and the obtained solution was diluted with commercially available phosphoric acid buffer solution (hereinafter abbreviated as “PBS”) to prepare a 20 μg/ml test compound solution.
HUVEC was suspended in a 0.5% fetal bovine serum (hereinafter abbreviated as “FBS”)-containing F12K medium to prepare a 2×10^4 cells/ml HUVEC suspension.
VEGF was dissolved in 0.1% bovine serum albumin-containing PBS, and the obtained solution was diluted with the 0.5% FBS-containing F12K medium to prepare a 400 ng/ml VEGF solution.
• 1) The HUVEC suspension was inoculated in each amount of 100 μl into each well of a 96-well plate coated with I type collagen (2×10^3 cells per well). • 2) One day after inoculation, the test compound solution was added in an amount of 5 μl per well. • 3) One hour after adding the test compound solution, the VEGF solution was added in an amount of 5 μl per well. • 4) Three days after adding the VEGF solution, cell counting kit-8(Dojin Chemical Co., Ltd.) was added in an amount of 10 μl per well. • 5) After three hours, the above-mentioned plate was attached to an absorptiometer (multi label counter ARVO), and absorbance at 450 nm of each well suspension (hereinafter referred to as “test compound suspension”) was measured. • 6) A test was carried out in the same manner as in 1) to 5) except that 1.0% DMSO was used instead of the test compound solution.
Incubation was carried out under conditions of 37° C., 5% carbon dioxide and 95% air in an incubator throughout the above-mentioned test steps.
Cell growth inhibition rates, which are indexes of angiogenesis inhibitory effects, were calculated by the following calculation equation.

A further assay has as its system B16 cells. The assay can be described thus: Tumor growth inhibitory action test using mouse cancer model (B16 cells). In kind it is in vivo. The conditions noted are these: po, 240 h; C57BL/6 mouse, B16 cells intradermally, 100 mg/kg/day orally once a day, ten days after injection, average of nine mice; read-out: Tumor tissue weight inhibition rate (%). The method, then:
Tumor proliferation inhibitory action tests of the present compounds were carried out using a mouse cancer model, which is one of widely-used methods of evaluating in vivo anticancer effects of drugs.
As one of widely-used methods of evaluating anticancer effects of drugs, a tumor growth inhibitory action test using mouse cancer models was reported in Cancer Res., 59, 5209-5218(1999). According to the method described in the above-mentioned literature, tumor growth inhibitory action tests of the present compounds were carried out, their tumor tissue weight inhibition rates were calculated, and anticancer effects of the present compounds were evaluated using the obtained rates as indexes.
A 1% aqueous methyl cellulose solution was added to each test compound to suspend it with a sonicator thereby to prepare a 10 mg/ml test compound suspension.
Physiological saline was added to B16 cells to prepare a 3.3×10^7 cells/ml B16 cell suspension.
Calculation of Tumor Tissue Weight Inhibition Rate
Tumor tissue weight inhibition rates (the average of nine mice per group), which are indexes of anticancer effects were calculated, from the following calculation equation.

The test system of assay [2] is rat choroidal neovascularization model. The experiment in a line: Neovascularization incidence test using laser-induced rat choroidal neovascularization model. In kind it is in vivo. The conditions noted are these: po, 168 h; Brown Norway rat, krypton laser photocoagulation, 30 mg/kg/day orally once a day for seven days, ratio to vehicle administration group, average of three to four individuals and six to eight eyes; read-out: Ratio of neovascularization incidence rate (% of Control). The method, then:
Neovascularization incidence tests of the present compounds were carried out using a rat choroidal neovascularization model, which is one of widely-used methods of evaluating in vivo choroidal neovascularization inhibitory effects of drugs.
As one of widely-used methods of evaluating choroidal neovascularization inhibitory effects of drugs, a neovascularization incidence test using rat choroidal neovascularization models was reported in Graefe's Arch. Cli. Exp. Ophthalmol., 235, 313-319(1997). According to the method described in the above-mentioned literature, neovascularization incidence tests of the present compounds were carried out, ratios of neovascularization incidence rates of present compounds administration groups were calculated to a neovascularization incidence rate of vehicle administration group (control group), and choroidal neovascularization inhibitory effects of the present compounds were evaluated using the obtained ratios as indexes.
A 1% aqueous methyl cellulose solution was added to each test compound to suspend it thereby to prepare a 6 mg/10 ml test compound suspension.
• 1) A 7:1 mixed solution (1 ml/kg) of a 5% ketamine hydrochloride injection and a 2% xylazine hydrochloride injection was administered intramuscularly to rats (Brown Norway, male, eight weeks old, weight: 200 to 250 g) to anesthetize them systemically. • 2) A tropicamide-phenylephrine hydrochloride ophthalmic solution (trade name: Mydrin-P) was instilled into eyes to cause mydriasis, and then photocoagulation was performed in a Bruch's membrane of each rat using a krypton laser photocoagulation apparatus. The laser irradiation was carried out at eight spots per eye sparsely avoiding thick retinal vessels in a posterior section of ocular fundus and focusing on the retinal deep site. Photocoagulation conditions were adjusted to 100 μm of spot size, […] of output and 0.1 sec. of coagulation time. • 3) After the photocoagulation, the ocular fundus was photographed to confirm photocoagulation (laser irradiation) sites. […] Method of Evaluation • 1) Seven days after the photocoagulation, 0.1 ml of a 10% aqueous fluorescein solution was injected into a tail vein of the rat, and fluorescein fundus photography was performed. • 2) Next, in the fluorescein fundus photography, a spot where fluorescence leak was not observed was judged as negative, and a spot where fluorescence leak was observed was judged as positive. Photocoagulation sites where a little fluorescence leak was observed were judged as positive when two sites are present. • 3) Neovascularization incidence rates were calculated according to the calculation equation 1. Ratios of the neovascularization incidence rates of the test compound administration groups to that of the vehicle administration group were calculated according to the calculation equation 2 from neovascularization incidence rates of respective administration groups.
The values are the average of three to four individuals and six to eight eyes.

For assay [3], the system named is rat adjuvant arthritis model. The experiment in a line: Paw edema inhibitory action test using rat adjuvant arthritis model. In kind it is in vivo. As to conditions: po, 504 h; Lewis rat, adjuvant-untreated (secondary inflammation) paw, 10 mg/kg/day orally once a day, 21 days after, average of eight rats; read-out: Paw edema inhibition rate (%). The method, then:
Paw edema inhibitory action tests of the present compounds were carried out using a rat adjuvant arthritis model, which is one of widely-used methods of evaluating in vivo antiarthritis effects of drugs.
As one of widely-used methods of evaluating antiarthritic effects of drugs, a paw edema inhibitory action test using rat adjuvant arthritis models is known. Paw edema inhibitory action tests of the present compounds were carried out, their paw edema inhibition rates were calculated, and antiarthritic effects of the present compounds were evaluated using the obtained rates as indexes.
A 1% aqueous methyl cellulose solution was added to each test compound to suspend it thereby to prepare a 2 mg/ml test compound suspension.
Liquid paraffin was added to Mycobacterium-butyricum to suspend it to prepare 6 mg/ml adjuvant.
Each paw edema inhibition rate of paw edema in an adjuvant-untreated paw (secondary inflammation paw) in each test compound administration group was calculated to paw edema in a secondary inflammation paw in a control group, and antiarthritic effects of the present compounds were evaluated using the obtained rates as indexes.
Paw edema rates were calculated from the following calculation equation 1, and then paw edema inhibition rates (the average of eight rats per group), which are indexes of the antiarthritic effects, were calculated from the calculation equation 2.

We go through 16 compounds from US8518973B2, “Compounds having 4-pyridylalkylthio group as a substituent” (Santen Pharmaceutical Co., Ltd., priority 2003, dated 2013).

The inhibition is the drop in the measured response relative to a control, in per cent. On to `O=C(Nc1ccc2c(c1)CCC2)c1cccnc1SCc1cc[n+]([O-])cc1` [4-8, N-(5-Indanyl)-2-(1-oxopyridin-4-ylmethylthio)pyridine-3-carboxamide], for which, in assay [1], the inhibition at 20 µg/mL (stock) was found to be 98%. Besides, the inhibition in vivo at 100 mg/kg/day in the assay on B16 cells worked out at 80%.

For `O=C(Nc1ccc(OC(F)(F)F)cc1)c1cccnc1SCc1cc[n+]([O-])cc1` [4-9, 2-(1-Oxopyridin-4-ylmethylthio)-N-(4-trifluoromethoxyphenyl)pyridine-3-carboxamide], in assay [1], the inhibition at 20 µg/mL (stock) amounted to 100%. Also, the inhibition in vivo at 100 mg/kg/day in the assay with B16 cells is 77%.

In the case of `CC(C)(C)c1ccc(NC(=O)c2cccnc2SCc2ccncc2)cc1` [1-51, N-(4-tert-Butylphenyl)-2-(4-pyridylmethylthio)pyridine-3-carboxamide], in assay [1], the inhibition at 20 µg/mL (stock) was 98%. Further, in the assay on B16 cells, the inhibition in vivo at 100 mg/kg/day was found to be 59%.

With `Cc1cc(NC(=O)c2ccccc2SCc2ccncc2)ccc1Cl` [1-99, N-(4-Chloro-3-methylphenyl)-2-(4-pyridylmethylthio)benzamide], the inhibition at 20 µg/mL (stock) in assay [1] stood at 100%. In addition, in the assay on B16 cells, the inhibition in vivo at 100 mg/kg/day turned out to be 64%.

Regarding `O=C(Nc1ccc2cn[nH]c2c1)c1cccnc1SCc1ccncc1` [1-296, N-(Indazol-6-yl)-2-(4-pyridylmethylthio)pyridine-3-carboxamide], the inhibition at 20 µg/mL (stock) in assay [1] was 100%. Further, the inhibition in vivo at 100 mg/kg/day with B16 cells is 71%. In addition, in assay [2], the response vs control in vivo at 30 mg/kg/day came to 24%.

Consider `O=C(Nc1ccc(OC(F)(F)F)c(Cl)c1)c1cccnc1SCc1cc[n+]([O-])cc1` [4-11, N-(3-Chloro-4-trifluoromethoxyphenyl)-2-(1-oxopyridin-4-ylmethylthio)-pyridine-3-carboxamide], for which the inhibition at 20 µg/mL (stock) in assay [1] was 100%. The inhibition in vivo at 100 mg/kg/day with B16 cells is 62%.

Take `O=C(Nc1ccc2c(c1)CCC2)c1cccnc1SCc1ccncc1` [1-136, N-(5-Indanyl)-2-(4-pyridylmethylthio)pyridine-3-carboxamide]: the inhibition at 20 µg/mL (stock) in assay [1] stood at 100%. In addition, in the assay with B16 cells, the inhibition in vivo at 100 mg/kg/day is 53%. In addition, the response vs control in vivo at 30 mg/kg/day in assay [2] was determined as 38%.

Take `O=C(Nc1ccc(SC(F)(F)F)cc1)c1cccnc1SCc1ccncc1` [1-158, 2-(4-Pyridylmethylthio)-N-(4-trifluoromethylthiophenyl)pyridine-3-carboxamide]: in assay [1], the inhibition at 20 µg/mL (stock) came to 100%. In addition, in the assay on B16 cells, the inhibition in vivo at 100 mg/kg/day was found to be 76%. Also, the inhibition in vivo at 10 mg/kg/day in assay [3] was 22%.

Take `Cc1cc(C)cc(NC(=O)c2cccnc2SCc2cc[n+]([O-])cc2)c1` [4-4, N-(3,5-Dimethylphenyl)-2-(1-oxopyridin-4-ylmethylthio)pyridine-3-carboxamide]: the inhibition at 20 µg/mL (stock) in assay [1] is 100%. Further, in the assay on B16 cells, the inhibition in vivo at 100 mg/kg/day turned out to be 77%. For the same compound, the inhibition in vivo at 10 mg/kg/day in assay [3] was found to be 21%. The response vs control in vivo at 30 mg/kg/day in assay [2] is 26%.

Consider `O=C(Nc1ccc(OC(F)(F)F)c(Cl)c1)c1cccnc1SCc1ccncc1` [1-137, N-(3-Chloro-4-trifluoromethoxyphenyl)-2-(4-pyridylmethylthio)pyridine-3-carboxamide], for which, in assay [1], the inhibition at 20 µg/mL (stock) worked out at 100%. Moreover, the inhibition in vivo at 100 mg/kg/day with B16 cells was 66%. Also, the inhibition in vivo at 10 mg/kg/day in assay [3] amounted to 39%. The response vs control in vivo at 30 mg/kg/day in assay [2] came out at 65%.

For `O=C(Nc1cc2ccccc2cn1)c1cccnc1SCc1ccncc1` [1-22, N-(3-Isoquinolyl)-2-(4-pyridylmethylthio)pyridine-3-carboxamide], in assay [1], the inhibition at 20 µg/mL (stock) is 100%. In addition, the inhibition in vivo at 100 mg/kg/day in the assay on B16 cells was 45%. The inhibition in vivo at 10 mg/kg/day in assay [3] is 27%.

Regarding `O=C(Nc1ccc2ncccc2c1)c1cccnc1SCc1ccncc1` [1-21, 2-(4-Pyridylmethylthio)-N-(6-quinolyl)pyridine-3-carboxamide], in assay [1], the inhibition at 20 µg/mL (stock) came to 99%. Besides, the inhibition in vivo at 100 mg/kg/day in the assay with B16 cells was 65%. The response vs control in vivo at 30 mg/kg/day in assay [2] amounted to 15%.

With `O=C(Nc1ccc2[nH]ncc2c1)c1cccnc1SCc1ccncc1` [1-23, N-(Indazol-5-yl)-2-(4-pyridylmethylthio)pyridine-3-carboxamide], in assay [1], the inhibition at 20 µg/mL (stock) was determined as 100%. Moreover, the inhibition in vivo at 100 mg/kg/day in the assay on B16 cells came to 57%. Also, the response vs control in vivo at 30 mg/kg/day in assay [2] came to 26%.

As for `Cc1cc(C)cc(NC(=O)c2cccnc2SCc2ccnc(Br)c2)c1` [1-230, 2-(2-Bromopyridin-4-ylmethylthio)-N-(3,5-dimethylphenyl)pyridine-3-carboxamide], the inhibition at 20 µg/mL (stock) in assay [1] was determined as 100%. Further, the inhibition in vivo at 100 mg/kg/day with B16 cells was 66%.

In the case of `Cc1cccc(NC(=O)c2cccnc2SCc2cc[n+]([O-])cc2)c1` [4-3, N-(3-Methylphenyl)-2-(1-oxopyridin-4-ylmethylthio)pyridine-3-carboxamide], in assay [1], the inhibition at 20 µg/mL (stock) was found to be 100%.

Regarding `CC(Sc1ncccc1C(=O)Nc1cccc(Cl)c1)c1ccncc1` (stereo not shown) [5-2, N-(3-Chlorophenyl)-2-[1-(4-pyridyl)ethylthio]pyridine-3-carboxamide], in assay [1], the inhibition at 20 µg/mL (stock) amounted to 96%.
